Results published in patent US9272027B1 (priority 2014, dated 2016).

Tested on: F. tularensis Schu4
Experiment: microbe, parasite or virus in culture
Type: cell-based
Settings: Francisella tularensis, SCHU4, 44 h, read-out: IC50 of F. tularensis Schu4 growth inhibition

Compound `O=CN(O)CCCP(=O)(O)O` [fosmidomycin] has an IC50 of 5 µM.
